From patent US11512079B2, “Heterocycle substituted pyridine derivative antifungal agents” (Amplyx Pharmaceuticals, Inc., priority 2017, dated 2022)
Converted amounts (≈) assume the structure as drawn.

Assays:
Type in all cases: cell-based
[1] = test system: Aspergillus fumigatus MYA3626; experiment: In vitro antifungal assay (Example IX), microdilution broth, MEC; details: minimum effective concentration (shortening of hyphae), 35° C., 40-48 h, RPMI1640
In short: (§1)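 Spore suspensions of A. fumigatus and R. pusillus adjusted to 1-2×10^4 spores/mL in RPMI1640 and exposed to compound dilutions prepared in DMSO, by broth microdilution. MEC taken as the lowest concentration shortening hyphae versus DMSO control wells, read as for echinocandins.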

[2] = test system: Rhizomucor pusillus 46342; experiment: as above; details: minimum effective concentration (shortening of hyphae), 35° C., 40-48 h, RPMI1640
In short: as §1

[3] = test system: Cryptococcus gattii; experiment: In vitro antifungal assay (Example IX), microdilution broth, MIC; details: minimum inhibitory concentration (≥50% inhibition), 35° C., 72 h (Cryptococcus), RPMI1640
Method: Preparation of Fungal Suspension. C. albicans 90028 and C. neoformans H99 strains were streaked from frozen stocks at −80° C. onto Sabouraud Dextrose Agar (SDA) plates. These were allowed to grow for 24 h (C. albicans) and 48 h (C. neoformans) at 35° C. before using them in the assay. 5-6 individual colonies were picked and diluted into sterile water to obtain a fungal suspension. The cell density of the suspension was determined and the culture diluted with RPMI1640 medium to obtain a fungal suspension of 2.5×10^3 cells/mL. The suspension was used in the MIC measurement as described below.
Preparation of Compound Stocks and Intermediate Dilutions: The compounds were weighed and DMSO was added to prepare a 10 mg/mL stock. The solutions were mixed by vortexing and sonication at 37° C. for 5-10 mins. The resulting solutions were sterile filtered using a PTFE filter, and aliquoted (12 μL or as needed) and stored at −20° C. Intermediate compound dilutions were prepared in sterile polypropylene tubes in 100% DMSO. The compound stock solution was first diluted in DMSO to obtain a concentration of […] to 0.19 μg/mL.
MIC/MEC Measurement: 99 μL 1 of the fungal suspension in RPMI1640 prepared as above was added to each well of a 96-well round bottom assay plate. 1 μL of the intermediate compound dilutions (200-0.19 μg/mL) were added to wells of the plate. This led to a 100-fold dilution of the intermediate dilutions resulting in a final compound concentration of 2-0.0019 μg/mL in the plate. 1 μL of DMSO was added to “No drug” control wells. The solutions were mixed by shaking on a plate shaker for 10 mins and plates incubated at 35° C. for 40-48 h (C. albicans, A. fumigatus, R. pusillus) and 72 h (Cryptococcus). […] This was validated by thorough mixing and reading at 600 nm on a microplate reader. The minimum concentration that led to shortening of hyphae as compared to hyphal growth in DMSO control wells was determined as the minimum effective concentration (MEC) for A. fumigatus and R. pusillus (as read for echinocandins). The use of the MIC and MEC endpoints against yeasts and molds, respectively has been described by Pfaller M A, Duncanson F, Messer S A, Moet G J, Jones R N, Castanheira M. Antimicrob Agents Chemother. 2011. 55(11):5155-8. In vitro activity of a novel broad-spectrum antifungal, E1210, tested against Aspergillus spp. determined by CLSI and EUCAST broth microdilution methods. Results are shown in Table 2, and the letters indicate the following ranges in μg/mL: […]

[4] = test system: Candida albicans 90028; experiment: as above; details: minimum inhibitory concentration (≥50% inhibition), 35° C., 40-48 h, RPMI1640
In short: (§2)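 CLSI broth microdilution in RPMI1640 with 2.5×10^3 cells/mL and final compound concentrations of 2-0.0019 μg/mL (1% DMSO). C. albicans 90028 plates were incubated at 35° C. for 40-48 h and C. neoformans H99 for 72 h. MIC was read as minimum inhibitory concentration, verified at 600 nm.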

[5] = test system: Cryptococcus neoformans H99; experiment: as above; details: minimum inhibitory concentration (≥50% inhibition), 35° C., 72 h, RPMI1640
In short: as §2

SMILES | MIC [3] | MIC [4] | MIC [5] | minimal effective concentration [1] | minimal effective concentration [2]
Nc1ncccc1-c1cc(Cc2ccc(OCc3ccncc3)nc2)no1 [compound 37, 3-(3-((6-(pyridin-4-ylmethoxy)pyridin-3-yl)methyl)isoxazol-5-yl)pyridin-2-amine] | ≤ 0.01 µg/mL | 0.01 to 0.1 µg/mL (≈ 0.0278 to 0.278 µM) | ≤ 0.01 µg/mL | 0.01 to 0.1 µg/mL | > 1 µg/mL
Nc1ncccc1-c1cc(Cc2ccc(OCc3ccncc3Cl)nc2)no1 [compound 218, 3-(3-((6-((3-chloropyridin-4-yl)methoxy)pyridin-3-yl)methyl)isoxazol-5-yl)pyridin-2-amine] | > 1 µg/mL | 0.1 to 1 µg/mL (≈ 0.254 to 2.54 µM) | > 1 µg/mL | 0.1 to 1 µg/mL | > 1 µg/mL
Nc1ncccc1-c1cc(Cc2cnc(Nc3ccccc3F)c(F)c2)no1 [compound 250, 5-((5-(2-aminopyridin-3-yl)isoxazol-3-yl)methyl)-3-fluoro-N-(2-fluorophenyl)pyridin-2-amine] | 0.1 to 1 µg/mL (≈ 0.264 to 2.64 µM) | 0.01 to 0.1 µg/mL (≈ 0.0264 to 0.264 µM) | 0.01 to 0.1 µg/mL (≈ 0.0264 to 0.264 µM) | 0.01 to 0.1 µg/mL | 0.1 to 1 µg/mL
Nc1ncccc1-c1cc(Cc2ccnc(OCC3CC3)c2)no1 [Example 150, 3-(3-((2-(cyclopropylmethoxy)pyridin-4-yl)methyl)isoxazol-5-yl)pyridin-2-amine] | 0.1 to 1 µg/mL (≈ 0.31 to 3.1 µM) | 0.1 to 1 µg/mL (≈ 0.31 to 3.1 µM) | 0.1 to 1 µg/mL (≈ 0.31 to 3.1 µM) | 0.1 to 1 µg/mL | > 1 µg/mL
Nc1ncccc1-c1cc(Cc2cnc(SCc3ccccc3)nc2)no1 [compound 125, 3-(3-((2-(benzylthio)pyrimidin-5-yl)methyl)isoxazol-5-yl)pyridin-2-amine] | > 1 µg/mL | 0.1 to 1 µg/mL (≈ 0.266 to 2.66 µM) | > 1 µg/mL | 0.1 to 1 µg/mL | > 1 µg/mL
Nc1ncccc1-c1cc(Cc2ccc(Cn3cc(F)cn3)cc2)no1 [compound 4, 3-(3-(4-((4-fluoro-1H-pyrazol-1-yl)methyl)benzyl)isoxazol-5-yl)pyridin-2-amine] | 0.1 to 1 µg/mL (≈ 0.286 to 2.86 µM) | 0.1 to 1 µg/mL (≈ 0.286 to 2.86 µM) | 0.1 to 1 µg/mL (≈ 0.286 to 2.86 µM) | 0.01 to 0.1 µg/mL | 0.1 to 1 µg/mL
c1ccc(OCc2ccc(Cn3cc(-c4cccnc4)cn3)cc2)nc1 [compound 62, 2-((4-((4-(pyridin-3-yl)-1H-pyrazol-1-yl)methyl)benzyl)oxy)pyridine] | > 1 µg/mL | 0.1 to 1 µg/mL (≈ 0.292 to 2.92 µM) | > 1 µg/mL | 0.01 to 0.1 µg/mL | > 1 µg/mL
Nc1ncccc1-c1cc(Cc2ccc(OCC3CC3)nc2)no1 [compound 43, 3-(3-((6-(cyclopropylmethoxy)pyridin-3-yl)methyl)isoxazol-5-yl)pyridin-2-amine] | 0.01 to 0.1 µg/mL (≈ 0.031 to 0.31 µM) | 0.1 to 1 µg/mL (≈ 0.31 to 3.1 µM) | 0.01 to 0.1 µg/mL (≈ 0.031 to 0.31 µM) | 0.01 to 0.1 µg/mL | 0.1 to 1 µg/mL
Nc1ncccc1-c1cc(Cc2ccc(Cc3ccco3)cc2)no1 [compound 121, 3-(3-(4-(furan-2-ylmethyl)benzyl)isoxazol-5-yl)pyridin-2-amine] | 0.01 to 0.1 µg/mL (≈ 0.0302 to 0.302 µM) | 0.01 to 0.1 µg/mL (≈ 0.0302 to 0.302 µM) | 0.01 to 0.1 µg/mL (≈ 0.0302 to 0.302 µM) | ≤ 0.01 µg/mL | 0.01 to 0.1 µg/mL
Nc1ncccc1-c1cc(Cc2ccc(Cc3cccnc3)cc2)no1 [compound 9, 3-(3-(4-(pyridin-3-ylmethyl)benzyl)isoxazol-5-yl)pyridin-2-amine] | 0.01 to 0.1 µg/mL (≈ 0.0292 to 0.292 µM) | 0.01 to 0.1 µg/mL (≈ 0.0292 to 0.292 µM) | 0.1 to 1 µg/mL (≈ 0.292 to 2.92 µM) | 0.1 to 1 µg/mL | 0.1 to 1 µg/mL
Nc1ncccc1-c1cc(Cc2ccc(OCCc3ccccc3)nc2)no1 [compound 78, 3-(3-((6-phenethoxypyridin-3-yl)methyl)isoxazol-5-yl)pyridin-2-amine] | 0.01 to 0.1 µg/mL (≈ 0.0269 to 0.269 µM) | 0.01 to 0.1 µg/mL (≈ 0.0269 to 0.269 µM) | 0.01 to 0.1 µg/mL (≈ 0.0269 to 0.269 µM) | 0.1 to 1 µg/mL | 0.1 to 1 µg/mL
Nc1ncccc1-c1cc(Cc2ccc(Oc3ncccn3)cc2)no1 [compound 243, 3-(3-(4-(pyrimidin-2-yloxy)benzyl)isoxazol-5-yl)pyridin-2-amine] | 0.1 to 1 µg/mL (≈ 0.29 to 2.9 µM) | 0.1 to 1 µg/mL (≈ 0.29 to 2.9 µM) | 0.1 to 1 µg/mL (≈ 0.29 to 2.9 µM) | 0.1 to 1 µg/mL | > 1 µg/mL
Nc1ncccc1-c1cc(Cc2ccc(COc3cc(F)cc(F)c3F)cc2)no1 [compound 190, 3-(3-(4-((2,3,5-trifluorophenoxy)methyl)benzyl)isoxazol-5-yl)pyridin-2-amine] | 0.1 to 1 µg/mL (≈ 0.243 to 2.43 µM) | 0.1 to 1 µg/mL (≈ 0.243 to 2.43 µM) | 0.1 to 1 µg/mL (≈ 0.243 to 2.43 µM) | 0.1 to 1 µg/mL | > 1 µg/mL

The next lines start with results.

MIC [3] | MIC [4] | MIC [5] | SMILES | minimal effective concentration [1] | minimal effective concentration [2]
0.01 to 0.1 µg/mL (≈ 0.0269 to 0.269 µM) | 0.01 to 0.1 µg/mL (≈ 0.0269 to 0.269 µM) | 0.01 to 0.1 µg/mL (≈ 0.0269 to 0.269 µM) | Nc1ccc(-c2cc(Cc3ccc(OCc4ccccc4)cc3)no2)c(N)n1 [compound 132, 3-(3-(4-(benzyloxy)benzyl)isoxazol-5-yl)pyridine-2,6-diamine] | ≤ 0.01 µg/mL | 0.1 to 1 µg/mL
0.01 to 0.1 µg/mL (≈ 0.0266 to 0.266 µM) | 0.1 to 1 µg/mL (≈ 0.266 to 2.66 µM) | 0.1 to 1 µg/mL (≈ 0.266 to 2.66 µM) | Nc1ncccc1-c1cc(Cc2ccc(OCc3ccc(F)cc3)nc2)no1 [compound 187, 3-(3-((6-((4-fluorobenzyl)oxy)pyridin-3-yl)methyl)isoxazol-5-yl)pyridin-2-amine] | 0.1 to 1 µg/mL | 0.1 to 1 µg/mL
0.1 to 1 µg/mL (≈ 0.265 to 2.65 µM) | 0.1 to 1 µg/mL (≈ 0.265 to 2.65 µM) | 0.1 to 1 µg/mL (≈ 0.265 to 2.65 µM) | Nc1ncccc1-c1cc(Cc2ccc(OCc3ccc(F)cn3)nc2)no1 [compound 51, 3-(3-((6-((5-fluoropyridin-2-yl)methoxy)pyridin-3-yl)methyl)isoxazol-5-yl)pyridin-2-amine] | 0.01 to 0.1 µg/mL | 0.1 to 1 µg/mL
≤ 0.01 µg/mL | 0.01 to 0.1 µg/mL (≈ 0.0263 to 0.263 µM) | 0.01 to 0.1 µg/mL (≈ 0.0263 to 0.263 µM) | Nc1ncccc1-c1cc(Cc2ccc(Oc3ncc(F)cc3F)cc2)no1 [compound 242, 3-(3-(4-((3,5-difluoropyridin-2-yl)oxy)benzyl)isoxazol-5-yl)pyridin-2-amine] | 0.01 to 0.1 µg/mL | 0.1 to 1 µg/mL
0.1 to 1 µg/mL (≈ 0.266 to 2.66 µM) | 0.01 to 0.1 µg/mL (≈ 0.0266 to 0.266 µM) | 0.1 to 1 µg/mL (≈ 0.266 to 2.66 µM) | Nc1ncccc1-c1cc(Cc2ccc(CNc3cccc(F)n3)cc2)no1 [compound 31, N-(4-((5-(2-aminopyridin-3-yl)isoxazol-3-yl)methyl)benzyl)-6-fluoropyridin-2-amine] | 0.01 to 0.1 µg/mL | 0.1 to 1 µg/mL
0.1 to 1 µg/mL (≈ 0.305 to 3.05 µM) | > 1 µg/mL | 0.1 to 1 µg/mL (≈ 0.305 to 3.05 µM) | Nc1ncccc1-c1cc(Cc2ccc(-c3ccccn3)cc2)no1 [compound 203, 3-(3-(4-(pyridin-2-yl)benzyl)isoxazol-5-yl)pyridin-2-amine] | > 1 µg/mL | > 1 µg/mL
0.01 to 0.1 µg/mL (≈ 0.028 to 0.28 µM) | 0.1 to 1 µg/mL (≈ 0.28 to 2.8 µM) | 0.1 to 1 µg/mL (≈ 0.28 to 2.8 µM) | Nc1ncccc1-c1cc(Cc2ccc(C(O)c3ccccc3)cc2)no1 (centres unmarked) [compound 22, (4-((5-(2-aminopyridin-3-yl)isoxazol-3-yl)methyl)phenyl) (phenyl)methanol] | 0.1 to 1 µg/mL | > 1 µg/mL
0.01 to 0.1 µg/mL (≈ 0.0267 to 0.267 µM) | 0.01 to 0.1 µg/mL (≈ 0.0267 to 0.267 µM) | 0.1 to 1 µg/mL (≈ 0.267 to 2.67 µM) | Nc1ncccc1-c1cc(Cc2ccc(CNc3ccccc3F)cc2)no1 [compound 106, 3-(3-(4-(((2-fluorophenyl)amino)methyl)benzyl)isoxazol-5-yl)pyridin-2-amine] | 0.01 to 0.1 µg/mL | 0.1 to 1 µg/mL
0.1 to 1 µg/mL (≈ 0.268 to 2.68 µM) | 0.1 to 1 µg/mL (≈ 0.268 to 2.68 µM) | 0.1 to 1 µg/mL (≈ 0.268 to 2.68 µM) | Nc1ncccc1-c1cc(Cc2ccc(OCCc3ccccn3)nc2)no1 [compound 39, 3-(3-((6-(2-(pyridin-2-yl)ethoxy)pyridin-3-yl)methyl)isoxazol-5-yl)pyridin-2-amine] | 0.1 to 1 µg/mL | > 1 µg/mL
